According to patent US12522597B2, “Methods and compositions for modulating splicing” (Skyhawk Therapeutics, Inc., priority 2019, dated 2026):
pEC50: −log10 of the molar value. Like-named read-outs stand apart in the source and are kept apart here.

Experiments:
[1] = system: mHTT protein; experiment: mHTT protein assay (2B7-MW1, Mesoscale Discovery); assay type: cell-based, human; conditions: GM04724 (CAG 70/20) Huntington's disease patient lymphoblast cells, 48 hours, 2B7-MW1 MSD; read-out: HTT Potency - Protein EC50 mHTT (average)
In short: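 GM04724 Huntington's patient lymphoblasts (CAG 70/20) were treated for 48 h at 10 μM to 0.6 nM. mHTT was quantified by 2B7-MW1 MSD immunoassay, whose signal depends on polyQ expansion and HTT fragment size. Viability was run on a parallel plate by CellTiter-Glo.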

[2] = system: MDR1-MDCK cell monolayers; experiment: MDCK-MDR1 permeability assay (BBB penetration potential); assay type: in vitro ADME; conditions: dog, MDCK-MDR1, 120 min, 5 μM, pH 7.4
Experimental: (§1) Each determination is performed in duplicate. […] Analytical conditions are outlined below.

[3] = system: MDR1; experiment: as above; assay type: in vitro ADME; conditions: dog; for efflux ratio at 120 min, 5 μM: MDCK-MDR1, pH 7.4, MDCK-MDR1: Efflux; for Papp A→B at 120 min, 5 μM: MDCK-MDR1, pH 7.4, MDCK-MDR1: Papp A-B; for Papp B→A at 120 min, 5 μM: MDCK-MDR1, pH 7.4, MDCK-MDR1: Papp B-A
Experimental: as §1

[4] = system: Huntingtin (HTT) transcripts; experiment: Quantitative splicing assay (HTT), qPCR; assay type: cell-based; conditions: Homo sapiens, GM04724 (CAG 70/20) Huntington's disease patient lymphoblasts, 24 h
In short: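 GM04724 HD patient lymphoblasts (CAG 70/20) dosed 24 h with compound from 2.5 uM to 0.15 nM (0.1% DMSO). Lysates converted to cDNA; TaqMan qPCR measured compound-induced inclusion of a cryptic exon in HTT intron 49.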

[5] = qPCR HTTex49_50, read-out: HTT Potency - Splicing: E49-50 EC50 (average)
[6] = qPCR cryptic exon 49b inclusion, read-out: HTT Potency - Splicing: E49b EC50 (average)

For `CNC(=O)c1ccc2cc(-c3ccc(O[C@@H]4C[C@H]5CCC[C@H](N5)[C@@H]4F)nn3)c(O)cc2n1` (single isomer, unassigned) [136-ENT2], the pEC50 [1] was 7.82 to 11.00, the “MDCK-MDR1: % Recov A-B” value [2] was 88% and the “MDCK-MDR1: % Recov B-A” value [2] was 93%. It also gave an efflux ratio at 120 min, 5 μM [3] of 25, a Papp A→B at 120 min, 5 μM [3] of 2.1 ×10⁻⁶ cm/s and a Papp B→A at 120 min, 5 μM [3] of 52.1 ×10⁻⁶ cm/s. It also gave a pEC50 [4, 5] of 7.82 to 11.00 and a pEC50 [4, 6] of 7.30 to 7.80.
In the case of `Cn1cc(-c2ccc(-c3ccc(O[C@H]4C[C@@H]5CCC[C@@H](N5)[C@@H]4F)nn3)c(O)c2)cn1` (single isomer, unassigned) [49-ENT2], the pEC50 [1] was 7.30 to 7.80, the “MDCK-MDR1: % Recov A-B” value [2] was 46% and the “MDCK-MDR1: % Recov B-A” value [2] was 75%. The efflux ratio at 120 min, 5 μM [3] was 3, the Papp A→B at 120 min, 5 μM [3] was 4.62 ×10⁻⁶ cm/s and the Papp B→A at 120 min, 5 μM [3] was 15.4 ×10⁻⁶ cm/s. The pEC50 [4, 5] was 7.30 to 7.80 and the pEC50 [4, 6] was 7.82 to 11.00.
In the case of `Oc1cc(-c2cnccn2)ccc1-c1ccc(O[C@H]2C[C@@H]3CCC[C@@H](N3)[C@H]2F)nn1` (single isomer, unassigned) [79-ENT2], the pEC50 [1] was 6.30 to 7.00, the “MDCK-MDR1: % Recov A-B” value [2] was 74% and the “MDCK-MDR1: % Recov B-A” value [2] was 82%. The efflux ratio at 120 min, 5 μM [3] was 3, the Papp A→B at 120 min, 5 μM [3] was 9.52 ×10⁻⁶ cm/s and the Papp B→A at 120 min, 5 μM [3] was 25.8 ×10⁻⁶ cm/s. It also gave a pEC50 [4, 5] of 7.00 to 7.29 and a pEC50 [4, 6] of 7.00 to 7.29.
For `Oc1cc(-c2nnco2)ccc1-c1ccc(O[C@H]2C[C@@H]3CCC[C@@H](N3)[C@H]2F)nn1` (single isomer, unassigned) [117-ENT2], the pEC50 [1] was 7.30 to 7.80, the “MDCK-MDR1: % Recov A-B” value [2] was 78% and the “MDCK-MDR1: % Recov B-A” value [2] was 93%. For the same molecule, the efflux ratio at 120 min, 5 μM [3] was 5, the Papp A→B at 120 min, 5 μM [3] was 7.22 ×10⁻⁶ cm/s and the Papp B→A at 120 min, 5 μM [3] was 37.9 ×10⁻⁶ cm/s. For the same molecule, the pEC50 [4, 5] was 6.30 to 7.00 and the pEC50 [4, 6] was 6.30 to 7.00.
In the case of `Cn1cc(-c2cc(O)c(-c3ccc(O[C@H]4C[C@@H]5CCC[C@@H](N5)[C@H]4F)nn3)cc2F)cn1` (single isomer, unassigned) [82-ENT2], the pEC50 [1] was 7.82 to 11.00, the “MDCK-MDR1: % Recov A-B” value [2] was 35% and the “MDCK-MDR1: % Recov B-A” value [2] was 72%. For the same molecule, the efflux ratio at 120 min, 5 μM [3] was 4, the Papp A→B at 120 min, 5 μM [3] was 3.26 ×10⁻⁶ cm/s and the Papp B→A at 120 min, 5 μM [3] was 12.8 ×10⁻⁶ cm/s. The pEC50 [4, 5] was 7.82 to 11.00 and the pEC50 [4, 6] was 7.82 to 11.00.
